Test results as given in patent US20240140957A1, “BRIDGED COMPOUNDS AS KRAS G12D INHIBITOR AND DEGRADER AND THE USE THEREOF” (BeiGene Switzerland GmbH, priority 2021, published 2024).

target: GDP-loaded KRAS G12D (Homo sapiens, UniProt P01116, G12D); assay: KRAS G12D Probe Displacement Assay; format: binding; conditions: KRAS G12D 0.5 nM, biotinylated probe 2 4 nM; Table 6 letters; read-out: KRAS G12D Probe Displacement Assay IC50 (class)
Sequence (P01116 1-188 isoform P01116-2 G12D): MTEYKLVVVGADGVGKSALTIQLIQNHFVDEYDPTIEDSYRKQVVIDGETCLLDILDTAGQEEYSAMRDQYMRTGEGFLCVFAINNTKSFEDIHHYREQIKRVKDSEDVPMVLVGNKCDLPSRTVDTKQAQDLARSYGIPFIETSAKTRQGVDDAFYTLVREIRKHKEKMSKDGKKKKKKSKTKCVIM

Row | IC50 [nM] | Structure (SMILES)
1 | < 50 | Nc1nc2c(-c3c(C(F)(F)F)cc4c(N5CC6CCC(C5)N6)nc(OCC(F)(F)CO)nc4c3F)ccc(F)c2s1 [Example E153, 3-((7-(2-amino-7-fluorobenzo[d]thiazol-4-yl)-4-(3,8-diazabicyclo [3.2.1]octan-3-yl)-8-fluoro-6-(trifluoromethyl)quinazolin-2-yl)oxy)-2,2-difluoropropan-1-ol]
2 | < 50 | Nc1nc2c(-c3c(C(F)(F)F)cc4c(N5CC6CCC(C5)N6)nc(OCC5(CO)CCC5)nc4c3F)ccc(F)c2s1 [Example E154, (1-(((7-(2-amino-7-fluorobenzo[d]thiazol-4-yl)-4-(3,8-diazabicyclo[3.2.1]octan-3-yl)-8-fluoro-6-(trifluoromethyl)quinazolin-2-yl)oxy)methyl)cyclobutyl) methanol]
3 | < 50 | N#CC1(CCOc2nc(N3CC4CCC(C3)N4)c3cc(C(F)(F)F)c(-c4ccc(F)c5sc(N)nc45)c(F)c3n2)CC1 [Example E155]
4 | < 50 | COC1(COc2nc(N3CC4CCC(C3)N4)c3cc(C(F)(F)F)c(-c4ccc(F)c5sc(N)nc45)c(F)c3n2)CC1 [Example E156]
5 | < 50 | N#CC1(COc2nc(N3CC4CCC(C3)N4)c3cc(C(F)(F)F)c(-c4ccc(F)c5sc(N)nc45)c(F)c3n2)CCCCC1 [Example E157, 1-(((7-(2-amino-7-fluorobenzo[d]thiazol-4-yl)-4-(3,8-diazabicyclo [3.2.1]octan-3-yl)-8-fluoro-6-(trifluoromethyl)quinazolin-2-yl)oxy)methyl)cyclohexane-1-carbonitrile]
6 | < 50 | Nc1nc2c(-c3c(C(F)(F)F)cc4c(N5CC6CCC(C5)N6)nc(OCC5(CO)CC(F)C5)nc4c3F)ccc(F)c2s1 (stereo not drawn) [Example E158, (1-(((7-(2-amino-7-fluorobenzo[d]thiazol-4-yl)-4-(3,8-diazabicyclo[3.2.1]octan-3-yl)-8-fluoro-6-(trifluoromethyl)quinazolin-2-yl)oxy)methyl)-3-fluorocyclobutyl)methanol]
7 | < 50 | Nc1nc2c(-c3c(C(F)(F)F)cc4c(N5CC6CCC(C5)N6)nc(OC5CCOCC5F)nc4c3F)ccc(F)c2s1 (stereo not drawn) [Example E159, 4-(4-(3,8-diazabicyclo[3.2.1]octan-3-yl)-8-fluoro-2-((3-fluorotetra hydro-2H-pyran-4-yl)oxy)-6-(trifluoromethyl)quinazolin-7-yl)-7-fluorobenzo[d]thiazol-2-amine]
8 | < 50 | Nc1nc2c(-c3c(C(F)(F)F)cc4c(N5CC6CCC(C5)N6)nc(OC5CCS(=O)(=O)CC5)nc4c3F)ccc(F)c2s1 [Example E160]
9 | < 50 | Nc1nc2c(-c3c(C(F)(F)F)cc4c(N5CC6CCC(C5)N6)nc(OCCCC5COC5)nc4c3F)ccc(F)c2s1 [Example E161]
10 | < 50 | Nc1nc2c(-c3c(C(F)(F)F)cc4c(N5CC6CCC(C5)N6)nc(OCC56CC(CO)(C5)C6)nc4c3F)ccc(F)c2s1 [Example E162, (3-(((7-(2-amino-7-fluorobenzo[d]thiazol-4-yl)-4-(3,8-diazabicyclo[3.2.1]octan-3-yl)-8-fluoro-6-(trifluoromethyl)quinazolin-2-yl)oxy)methyl)bicyclo[1.1.1]pentan-1-yl)methanol]
11 | < 50 | Nc1nc2c(-c3c(C(F)(F)F)cc4c(N5CC6CCC(C5)N6)nc(OCC5CC6CCC(C5)O6)nc4c3F)ccc(F)c2s1 (stereo not drawn) [Example E163, 4-(2-((8-oxabicyclo[3.2.1]octan-3-yl)methoxy)-4-(3,8-diazabicyclo[3.2.1]octan-3-yl)-8-fluoro-6-(trifluoromethyl)quinazolin-7-yl)-7-fluorobenzo[d]thiazol-2-amine]
12 | < 50 | CC(=O)N1CC(COc2nc(N3CC4CCC(C3)N4)c3cc(C(F)(F)F)c(-c4ccc(F)c5sc(N)nc45)c(F)c3n2)C1 [Example E164, 1-(3-(((7-(2-amino-7-fluorobenzo[d]thiazol-4-yl)-4-(3,8-diazabicyclo[3.2.1]octan-3-yl)-8-fluoro-6-(trifluoromethyl)quinazolin-2-yl)oxy)methyl)azetidin-1-yl)ethan-1-one]
13 | < 50 | Nc1nc2c(-c3c(C(F)(F)F)cc4c(N5CC6CCC(C5)N6)nc(OCC56CCC(CC5)OC6)nc4c3F)ccc(F)c2s1 [Example E165, 4-(2-((2-oxabicyclo[2.2.2]octan-4-yl)methoxy)-4-(3,8-diazabicyclo[3.2.1]octan-3-yl)-8-fluoro-6-(trifluoromethyl)quinazolin-7-yl)-7-fluorobenzo[d]thiazol-2-amine]
14 | < 50 | CC1(COc2nc(N3CC4CCC(C3)N4)c3cc(C(F)(F)F)c(-c4ccc(F)c5sc(N)nc45)c(F)c3n2)CCO1 (stereo not drawn) [Example E166, 4-(4-(3,8-diazabicyclo[3.2.1]octan-3-yl)-8-fluoro-2-((2-methyloxetan-2-yl)methoxy)-6-(trifluoromethyl)quinazolin-7-yl)-7-fluorobenzo[d]thiazol-2-amine]
15 | < 50 | CO[C@@H]1CC[C@H]1COc1nc(N2CC3CCC(C2)N3)c2cc(C(F)(F)F)c(-c3ccc(F)c4sc(N)nc34)c(F)c2n1 [Example E168, 4-(4-(3,8-diazabicyclo[3.2.1]octan-3-yl)-8-fluoro-2-(((1S,2R)-2-methoxycyclobutyl)methoxy)-6-(trifluoromethyl)quinazolin-7-yl)-7-fluorobenzo[d]thiazol-2-amine]
16 | < 50 | COCC(CO)(COc1nc(N2CC3CCC(C2)N3)c2cc(C(F)(F)F)c(-c3ccc(F)c4sc(N)nc34)c(F)c2n1)OC (stereo not drawn) [Example E169, 3-((7-(2-amino-7-fluorobenzo[d]thiazol-4-yl)-4-(3,8-diazabicyclo [3.2.1]octan-3-yl)-8-fluoro-6-(trifluoromethyl)quinazolin-2-yl)oxy)-2-methoxy-2-(methoxymethyl)propan-1-ol]
17 | < 50 | Nc1nc2c(-c3c(C(F)(F)F)cc4c(N5CC6CCC(C5)N6)nc(OCC5COC(=O)N5)nc4c3F)ccc(F)c2s1 (stereo not drawn) [Example E170, 4-(((7-(2-amino-7-fluorobenzo[d]thiazol-4-yl)-4-(3,8-diazabicyclo [3.2.1]octan-3-yl)-8-fluoro-6-(trifluoromethyl)quinazolin-2-yl)oxy)methyl)oxazolidin-2-one]
18 | < 50 | Nc1nc2c(-c3c(C(F)(F)F)cc4c(N5CC6CCC(C5)N6)nc(OCC5CS(=O)(=O)C5)nc4c3F)ccc(F)c2s1 [Example E171]
19 | < 50 | Nc1nc2c(-c3c(C(F)(F)F)cc4c(N5CC6CCC(C5)N6)nc(OCCC5(CCO)COC5)nc4c3F)ccc(F)c2s1 [Example E172, 2-(3-(2-((7-(2-amino-7-fluorobenzo[d]thiazol-4-yl)-4-(3,8-diazabicyclo[3.2.1]octan-3-yl)-8-fluoro-6-(trifluoromethyl)quinazolin-2-yl)oxy)ethyl)oxetan-3-yl) ethan-1-ol]
20 | < 50 | Nc1nc2c(-c3c(C(F)(F)F)cc4c(N5CC6CCC(C5)N6)nc(OCC5CC(O)C5)nc4c3F)ccc(F)c2s1 (stereo not drawn) [Example E173]

Row | Structure (SMILES) | IC50 [nM]
21 | COC1CC(Oc2nc(N3CC4CCC(C3)N4)c3cc(C(F)(F)F)c(-c4ccc(F)c5sc(N)nc45)c(F)c3n2)C1 (stereo not drawn) [Example E167, 4-(4-(3,8-diazabicyclo[3.2.1]octan-3-yl)-8-fluoro-2-(3-methoxycyclobutoxy)-6-(trifluoromethyl)quinazolin-7-yl)-7-fluorobenzo[d]thiazol-2-amine] | 50 to 100
